# Results published in PMC11944851, “Computationally Guided Design, Synthesis, and Evaluation of Novel Non-Hydroxamic Histone Deacetylase Inhibitors, Based on N-Trifluoroacetamide as a Zinc-Binding Group, Against Breast Cancer” (Pharmaceuticals, 2025).
# Like-named read-outs stand apart in the source and are kept apart here.
# What was measured:
# MCF-7 cells = assay: MTT cell viability, MCF-7; assay type: cell-based; conditions: for IC50: MTT, read-out: Cytotoxic Activity IC50 MCF-7; for Selectivity Index MCF-10A/ MCF-7: ratio of IC50
# Procedure: (§1) The BC cell lines MCF-7 and MDA-MB-231 were cultured in high-glucose DMEM medium with phenol red, supplemented with 7% and 10% fetal bovine serum (Gibco, Waltham, MA, USA), respectively, 1% Penicillin/Streptomycin (10,000 U/mL, Gibco, Waltham, MA, USA), and 1% non-essential amino acids (Gibco, Waltham, MA, USA). Cell cultures were maintained in a temperature-controlled incubator at 37 °C and 5% CO2 atmosphere. For the 72 h assays with MDA-MB-231, 1.8 x 10³ cells/well were seeded in 100 µL of medium.
# (§2) The 3-(4,5-dimethylthiazol-2-yl)-2,5-diphenyl tetrazolium bromide assay was used to evaluate the effect of the designed compounds on cell viability. These compounds were initially dissolved in DMSO (dimethyl sulfoxide) as stock solutions at 150 mM. Cells were seeded in 96-well plates (NEST Biotechnology Co., Wuxi, China) at different densities, depending on the cell line used and the incubation time with the treatments, and left in 100 µL of the corresponding culture medium for 24 h to allow for adhesion. Then, the cells were treated with different concentrations of each compound, maintaining a maximum of 0.46% DMSO. After 48 or 72 h of treatment, 20 µL of MTT (5 mg/mL) in phosphate-buffered saline (PBS; Sigma) solution was added to each well and incubated again for 3 h. Subsequently, the blue formazan compound derived from the MTT was dissolved in 100 µL of DMSO. The optical density of the wells was measured at 550 nm using an ELISA reader (MultiSkan, Thermo Scientific, Waltham, MA, USA). Finally, cell viability was expressed as a percentage relative to the negative control (untreated and 0.46% DMSO).
# (§3) Cytotoxicity data were analyzed using one-way ANOVA to evaluate differences between the treated groups and the negative control (DMSO). Multiple comparisons with the negative control were performed using Dunnett’s post hoc test. Statistical analysis was performed using GraphPad Prism 10 software (free trial, https://www.graphpad.com/demos/, accessed on 26 June 2024). For the calculation of the IC50s of the compounds, cytotoxicity responses were fitted to a variable slope sigmoidal equation (log(inhibitor) vs. normalized response). A p < 0.05 value was considered statistically significant.
# MDA-MB-231 cells = assay: MTT cell viability, MDA-MB-231; assay type: cell-based; conditions: for IC50: MTT, read-out: Cytotoxic Activity IC50 MDA-MB-231; for Cytotoxic activity, initial viability experiment: MDA-MB-231, 72 h of treatment; for Selectivity Index MCF-10A/ MDA-MB-231: ratio of IC50
# Procedure: as §1, §2, §3
# MCF-10A cells = assay: MTT cell viability, non-tumorigenic MCF-10A; assay type: cell-based; conditions: 72 h
# Procedure: (§4) For the culture of normal breast epithelial cells MCF-10A, DMEM-F12 medium without phenol red was used, supplemented with 5% fetal bovine serum (Gibco, Waltham, MA, USA), 1% Penicillin/Streptomycin (10,000 U/mL, Gibco, Waltham, MA, USA), 1% non-essential amino acids (Gibco, Waltham, MA, USA), 0.33% hydrocortisone, 0.2% insulin (100 U/mL), and 0.002% EGF (1 µg/µL). For the assays with MCF-10A cells, 2.5 × 10^3 cells/well were seeded in 100 µL of medium.
# as §2, §3
# [1] = MTT cell viability, non-tumorigenic MCF-10A; assay type: cell-based; conditions: human, MCF-10A non-cancerous mammary epithelial cells, MTT, non-tumorigenic breast cells, read-out: Cytotoxic Activity IC50 MCF-10A
# Procedure: as §4, §2, §3
# [2] = system: HDACs in nuclear extract of HeLa cells; assay: HDAC inhibitory activity, fluorescence assay in HeLa nuclear extract; assay type: biochemical
# Procedure: In this in vitro assay, residual HDAC activity was measured in a nuclear extract of HeLa cells after incubation with the different compounds at 5 µM, followed by single endpoint fluorescence measurement.
# To obtain nuclear extracts, HeLa cell cultures were used. The HeLa cell line was cultured in high-glucose DMEM medium with phenol red, supplemented with 8% fetal bovine serum (Gibco, Waltham, MA, USA), 1% Penicillin/Streptomycin (10,000 U/mL, Gibco, Waltham, MA, USA), and 1% non-essential amino acids (Gibco, Waltham, MA, USA). Cells were maintained in an incubator at 37 °C and 5% CO2 atmosphere. To obtain the required number of cells for nuclear extraction, two 150 cm^2 flasks were cultured, resulting in approximately 2 × 10^7 cells. The cells were trypsinized with a 10% V/V trypsin solution (Gibco, Waltham, MA, USA) and subsequently centrifuged at 3000 rpm for 10 min for counting with trypan blue using an automatic counter (Mart-Counter 3000, Corning, NY, USA). Solutions for nuclear material extraction were prepared following the protocol of the commercial kit Abcam Ab156064 (ABCAM, Milpitas, CA, USA). For the lysis buffer (solution A), 10 mL was prepared with Tris-HCl (10 mM) pH 7.5, NaCl (10 mM), MgCl2 (15 mM), sucrose (250 mM), EGTA (0.1 mM), and NP-40 (0.5%). For the sucrose buffer (solution B), 15 mL was prepared with Tris-HCl (10 mM) pH 7.5, NaCl (10 mM), MgCl2 (3 mM), and sucrose (30%). For the extraction buffer (solution C), 10 mL was prepared with NaCl (420 mM), EGTA (0.1 mM), HEPES-KOH (50 mM, pH 7.5), EDTA Na₂ (0.5 mM), and glycerol (10%). For every 1 × 10^7 of cells, 1 mL of solution A (lysis buffer) was added and vortexed for 10 s, followed by a 15 min rest in an ice bath. Then, 4 mL of solution B (sucrose buffer) was added, and the mixture was centrifuged at 1300× g for 10 min at 4 °C. The supernatant was discarded, and the nuclear pellet was washed with a solution of NaCl (10 mM) and Tris-HCl (10 mM) at pH 7.5. The nuclear pellet was then resuspended in 100 µL of solution C (extraction buffer), sonicated for 30 s, and placed in an ice bath for 30 min. The nuclear solution was centrifuged at 20,000× g for 10 min and the supernatant, containing the nuclear extract, was collected. The nuclear extracts were stored at −80 °C. The Lowry colorimetric assay was used to standardize the protein concentration of the obtained nuclear extracts. A sample of the nuclear extract and a sample of bovine serum albumin as a control were each added to 1 mL of Lowry reagent (sodium tartrate 0.1 M, sodium bicarbonate 0.1 M, CuSO4 0.01 M, and 50% Folin reagent).
# Prior to the experiment, a calibration curve was performed to ensure linearity.
# Reactions were prepared in a 96-well plate following the specified volumes and conditions. Initially, the appropriate volume of deionized water (ddH2O) and 10 μL of buffer were added to each well. Subsequently, 5 μL of either acetylated or deacetylated substrate was added, depending on the experimental group.
# Inhibition controls included Trichostatin A (TSA) at 1 mM, with 2 μL added to achieve a final concentration of 20 μM. The reaction was initiated by adding 4 μL of HeLa nuclear extract to each well, except for the developer control wells. The plate was incubated at 37 °C for 30 min, followed by the addition of 10 μL of developer solution. After a second incubation at 37 °C for another 30 min, fluorescence was measured using a plate reader with an excitation/emission of 350–380 nm/440–460 nm.
# Remaining HDAC activity was estimated using the calibration curve, where the fluorescence units (AFU) obtained for each condition were converted into deacetylated substrate concentration (μM).
# [3] = Homo sapiens, MDA-MB-231, 72 h, 72 h
# [4] = 5 µM, single endpoint fluorescence
Compound,"IC50 (MCF-7 cells; Homo sapiens, MCF7, 72 h, 72 h) [µM]",Selectivity Index MCF-10A/ MCF-7 (MCF-7 cells),IC50 (MDA-MB-231 cells; [3]) [µM],"Cytotoxic activity, initial viability experiment (MDA-MB-231 cells)",Selectivity Index MCF-10A/ MDA-MB-231 (MDA-MB-231 cells),"Effect on HDAC activity [2, 4]",also measured
"O=C(CCCCCNC(=O)C(F)(F)F)Nc1ccc(O)cc1 [6b, N-(4-hydroxyphenyl)-6-(2,2,2-trifluoroacetamido) Hexanamide]",45.7 ± 6.91,3.38,76.7,significant cytotoxic activity,2.01,–,fold more active than 5b in ER-positive cells (MCF-7 cells; 72 h): 5 fold; fold more potent than 5b in triple-negative breast cancer cells (MDA-MB-231 cells; 72 h): 1.5 fold; IC50 (MDA-MB-231 cells; 72 h): 76.7 ± 8.52 µM; fold less toxic than SAHA in MCF-10A cells (MCF-10A cells): more than 50 fold; IC50 at 72 h [1]: 155 ± 21.6 µM
"O=C(O)CCCCCNC(=O)C(F)(F)F [compound 3, 6-(2,2,2-trifluoroacetamido) Hexanoic Acid]",–,–,–,–,–,slight decrease in HDACs activity,–
"Trichostatin A [TSA, reference compound]",–,–,–,–,–,–,Effect on HDAC activity ([2]; TSA 20 µM): reduced HDAC activity almost completely
"O=C(CCCCCNC(=O)C(F)(F)F)Nc1ccccc1O [6a, N-(2-hydroxyphenyl)-6-(2,2,2-trifluoroacetamido) Hexanamide]",254 ± 34.4,>2.36,226,significant cytotoxic activity,>2.66,slight decrease in HDACs activity,IC50 (MDA-MB-231 cells; 72 h): 225 ± 17.6 µM; fold less toxic than SAHA in MCF-10A cells (MCF-10A cells): ≈ 200 fold
"CC(=O)NCCCCCC(=O)Nc1ccc(O)cc1 [5b, 6-Acetamido-N-(4-hydroxyphenyl) Hexanamide]",230,0.74,121 ± 26.7,significant cytotoxic activity,1.39,–,IC50 (MCF-7 cells; 72 h): 228 ± 52.9 µM; IC50 at 72 h [1]: 169 ± 20.6 µM
"CC(=O)NCCCCCC(=O)O [compound 2, 6-Acetamidohexanoic Acid]",–,–,–,–,–,slight decrease in HDACs activity,–
"CC(=O)NCCCCCC(=O)Nc1ccccc1O [5a, 6-Acetamido-N-(2-hydroxyphenyl) Hexanamide]",–,–,–,–,–,slight decrease in HDACs activity,–
"O=C(CCCCCCC(=O)Nc1ccccc1)NO [SAHA, suberoylanilide hydroxamic acid, reference compound]",–,–,–,–,–,reduced HDAC activity almost completely,–
